Measured values taken from patent publication US9890111B2, “Crystal structure of bifunctional transglycosylase PBP1b from E. coli and inhibitors thereof” (Academia Sinica, priority 2008, dated 2018).
Converted amounts (≈) assume the structure as drawn.

Legend:
[1] = target: T1, penicillin-binding protein 1b from E. coli (transglycosylase) (Escherichia coli, UniProt P02919); assay: Lipid II polymerization / transglycosylase (TG) activity assay; format: biochemical; settings: for TG Activity at various concentration of cmpd: 50 μM: 50 μM compound; for TG Activity at various concentration of cmpd: 50 μM / TG Activity at various concentration of cmpd: 100 μM / TG Activity at various concentration of cmpd: 25 μM: TG activity remaining (0% = full inhibition); for TG Activity at various concentration of cmpd: 100 μM: 100 μM compound; for TG Activity at various concentration of cmpd: 25 μM: 25 μM compound; for remaining activity at 50 µM: read-out: TG Activity at various concentration of cmpd: 50 μM; for remaining activity at 100 µM: read-out: TG Activity at various concentration of cmpd: 100 μM
T1 construct: PBP1b[58-804] was amplified from E. coli genomic DNA and cloned into the expression vector pET15b; His6 (N, cleaved yes); made in house; host or cells: E. coli BL21(DE3)
Method: Lipid II polymerization assays were carried out by incubating 100 μM fluorophore-labeled lipid II and penicillin-binding protein 1b from E. coli in tubes containing 10 ng/μL N-acetyl muramidase in 50 mM Tris.HCl (pH 8.0), 10 mM MgCl2, 0.1% Triton X-100, 10% DMSO, and 15% MeOH for 30 minutes (Van Nieuwenhze et al. J Am Chem Soc 2002, 124, 3656.). The fluorophore can be dansyl chloride, NBD, BODIPY, fluorescein. Reaction supernatants were then injected onto an anion-exchange HPLC column (SAX1, Supelco Co.) and eluted with a linear gradient of ammonium acetate (20 mM to 0.5 M) in methanol. The eluant was monitored for fluorescence with λex=466 nm and λem=535 nm.
Purified protein was concentrated in 20 mM Tris-HCl (pH 8.0), 300 mM NaCl, and 1 mM DDM. Instead of using Dansyl lipid II, 6-(N-(7-nitrobenz-2-oxa-1,3-diazol-4-yl)amino) hexanoyl (NBD)-labeled Lipid II was prepared as described (Taubes G (2008) Science 321:356-361; Payne D J (2008) Science 321:1644-1645) and used as a substrate to measure TG enzymatic activity, with approach similar to what has been described previously (Holtje J V (1998) Microbiol Mol Biol Rev 62:181-203). Assays were carried out by using the following condition: NBD-Lipid II, 20 nM protein, 50 mM Tris HCl (pH 8.0), 10 mMCaCl2, 0.085% decyl PEG (Anatrace), and 15% MeOH at 37° C. for 0, 1, 3, 5, 7, 9, 20, and 30 min. The concentration of NBD-Lipid II was varied from 1 to 100 μM to determine the rate of the TG activity. After the reaction, 200 μM moenomycin was added to stop the reaction, and 13 μM muramidase (Sigma-Aldrich) was added to digest the TG products to result in NBD-Lipid II without lipid tails. The fluorescent signal decrease of substrate and increase of NBD-Lipid II without lipid tails were detected by anion-exchange column SAX1 (Supelco) on HPLC (Hitachi). The elution procedures was a linear gradient of ammonium acetate (20 mM to 1 M) in MeOH monitored at λexcitation=466 nm and λemission=535 nm. The kinetic parameter was estimated by following the Michaelis-Menten equation. To investigate the importance of transmembrane (TM) helix, PBP1b and PBP1bΔTM (residues Met-1 to Leu-87 were removed) were extracted with the buffer containing 20 mM Tris-HCl (pH 8.0), 300 mM NaCl, and 13 mM FOS-CHOLINE-14 (Anatrace). The protein was purified by nickel chelation chromatography in the presence of 1 mM DDM. The activity assay was carried out by using the following condition: 12 μM NBD-Lipid II, 20 nM protein, 50 mM Tris-HCl (pH 8.0), 10 mM CaCl2, 0.085% decyl PEG, and 15% MeOH at 37° C. for time 0, 1, 3, 5, 7, 9, 20, and 30 min. The initial velocity was used to compare the activity of full-length PBP1b and PBP1bΔTM.

[2] = test system: Mycobacterium smegmatis (ATCC11565, MS); assay: Minimal inhibitory concentration (MIC), MS; format: cell-based; settings: for MIC MS: Mycobacterium smegmatis ATCC11565; for MIC: Mycolicibacterium smegmatis, ATCC11565, Mycobacterium smegmatis ATCC11565, read-out: MIC MS
Method: (§1) The minimal inhibitory concentration (MIC) of tested compounds was determined following the NCCLS standard. The experiments were conducted in 96-well microtiter plates using two-fold dilutions in Muller-Hilton broth with (Streptococcus pneumonia) or without blood (Bacillus subtilis, Enterococcus faecalis, Staphylococcus aureus, Escherichia coli, MRSA, Actinetobacter baumannii, Pseudomonas aeruginosa, Stenotrophomonas maltophilia, and Mycobacterium smegmatis). Exponentially growing cells at 5×10^5 cells/ml were incubated with test compounds at various concentrations. After an 18 h to 24 h incubation at 37° C., MIC was determined as the minimal concentration of the compound that prevents bacterial growth.

[3] = test system: Staphylococcus aureus (ATCC29213, SA); assay: Minimal inhibitory concentration (MIC), SA; format: cell-based; settings: for MIC SA: Staphylococcus aureus ATCC29213; for MIC: Staphylococcus aureus, ATCC29213, Staphylococcus aureus ATCC29213, read-out: MIC SA
Method: as §1

[4] = test system: methicillin-resistant Staphylococcus aureus (ATCC33592, MRSA); assay: Minimal inhibitory concentration (MIC), MRSA; format: cell-based; settings: methicillin-resistant Staphylococcus aureus ATCC33592; for MIC: Staphylococcus aureus, read-out: MIC MRSA
Method: as §1

[5] = test system: Escherichia coli (ATCC 25922, EC); assay: Minimal inhibitory concentration (MIC), EC; format: cell-based; settings: Escherichia coli ATCC 25922; for MIC: ATCC25922, read-out: MIC EC
Method: as §1

T1 sequence (P02919 58-804): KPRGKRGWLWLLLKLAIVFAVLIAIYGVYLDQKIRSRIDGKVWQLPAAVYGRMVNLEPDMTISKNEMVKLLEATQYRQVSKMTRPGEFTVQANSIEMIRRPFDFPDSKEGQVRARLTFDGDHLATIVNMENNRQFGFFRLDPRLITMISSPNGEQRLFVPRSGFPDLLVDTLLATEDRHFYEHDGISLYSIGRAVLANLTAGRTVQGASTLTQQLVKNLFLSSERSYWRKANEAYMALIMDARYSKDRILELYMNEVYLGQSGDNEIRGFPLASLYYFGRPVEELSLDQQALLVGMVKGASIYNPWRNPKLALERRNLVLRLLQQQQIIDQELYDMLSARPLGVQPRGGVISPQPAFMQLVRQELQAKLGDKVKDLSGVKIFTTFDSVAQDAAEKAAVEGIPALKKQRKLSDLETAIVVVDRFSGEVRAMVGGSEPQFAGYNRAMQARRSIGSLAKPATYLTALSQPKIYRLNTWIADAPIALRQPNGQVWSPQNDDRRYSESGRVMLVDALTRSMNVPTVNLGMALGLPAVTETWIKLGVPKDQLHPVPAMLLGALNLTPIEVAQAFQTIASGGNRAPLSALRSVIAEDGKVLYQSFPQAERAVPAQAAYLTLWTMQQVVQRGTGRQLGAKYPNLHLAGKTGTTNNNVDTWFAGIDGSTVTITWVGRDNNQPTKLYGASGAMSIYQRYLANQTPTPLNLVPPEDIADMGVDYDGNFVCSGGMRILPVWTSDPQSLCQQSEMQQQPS

SMILES	TG Activity at various concentration of cmpd: 50 μM [1] [%]	TG Activity at various concentration of cmpd: 100 μM [1] [%]	MIC MS [2] [µg/mL]	MIC SA [3] [µg/mL]	MIC MRSA [4] [µg/mL]	MIC EC [5] [µg/mL]	TG Activity at various concentration of cmpd: 25 μM [1] [%]	remaining activity at 50 µM [1] [%]	remaining activity at 100 µM [1] [%]	MIC [2] [µg/mL]	MIC [3] [µg/mL]	MIC [4] [µg/mL]	MIC [5] [µg/mL]
O=C(Nc1ccc(Cl)cc1)c1cc(Br)cc(Br)c1O [KTS-9]	100	100	2 (≈ 4.93 µM)	1 (≈ 2.47 µM)	1 (≈ 2.47 µM)	–	–	–	–	–	–	–	–
O=C(Nc1cc(Cl)cc(C(=O)c2ccc(Cl)cc2)c1Cl)c1cc(Br)cc(Br)c1O [Compound 115]	100	0	0.25 (≈ 0.432 µM)	0.5 (≈ 0.864 µM)	2 (≈ 3.46 µM)	>256	–	–	–	–	–	–	–
O=C(c1ccc(Cl)cc1)c1ccc(Oc2ccc(Cl)cc2)c(NC(=O)c2cc(I)cc(I)c2O)c1 [Compound 207]	0	–	32 (≈ 43.8 µM)	8 (≈ 11 µM)	4 (≈ 5.48 µM)	–	20	–	–	–	–	–	–
O=C(Nc1ccc(Oc2ccc(Cl)cc2)c(Cl)c1)c1cc(Br)cc(Br)c1O [Compound 122]	60	0	0.125 (≈ 0.235 µM)	0.5 (≈ 0.94 µM)	0.25 (≈ 0.47 µM)	>256	–	–	–	–	–	–	–
O=C(Nc1cc(Cl)ccc1Cl)c1cc(Br)cc(Br)c1O [Compound 127]	–	–	–	–	–	–	–	100	100	1 (≈ 2.27 µM)	1 (≈ 2.27 µM)	1 (≈ 2.27 µM)	64 (≈ 145 µM)
O=C(Nc1cc(Cl)c(Cl)c(Cl)c1)c1cc(Br)cc(Br)c1O [Compound 001]	–	–	–	–	–	–	–	–	100	≤ 0.03	≤ 0.03	0.06 (≈ 0.126 µM)	16 (≈ 33.7 µM)
O=C(c1ccccc1)c1cc(NC(=O)c2cc(Br)cc(Br)c2O)ccc1Cl [Compound 124]	100	0	1 (≈ 1.96 µM)	1 (≈ 1.96 µM)	1 (≈ 1.96 µM)	>256	–	–	–	–	–	–	–
O=C(Nc1cccc(Cl)c1)c1cc(Br)cc(Br)c1O [Compound 203]	–	–	–	–	–	–	–	100	100	4 (≈ 9.87 µM)	2 (≈ 4.93 µM)	2 (≈ 4.93 µM)	–
O=C(c1ccc(Cl)cc1)c1cc(NC(=O)c2cc(Cl)cc(Br)c2O)c(Cl)cc1Cl [Compound 123]	60	0	0.06 (≈ 0.112 µM)	0.25 (≈ 0.468 µM)	0.25 (≈ 0.468 µM)	>256	–	–	–	–	–	–	–
Cc1ccc(C(C)C)c(Oc2ccc(Cl)cc2NC(=O)c2cc(I)cc(I)c2O)c1 [Compound 208]	0	–	2 (≈ 3.09 µM)	4 (≈ 6.18 µM)	0.5 (≈ 0.772 µM)	–	100	–	–	–	–	–	–
Cc1ccc(NC(=O)c2cc(Br)cc(Br)c2O)cc1Cl [KTS-7]	–	–	–	–	–	–	–	100	100	1 (≈ 2.38 µM)	1 (≈ 2.38 µM)	1 (≈ 2.38 µM)	–
Cc1ccc(C(C)C)c(Oc2ccccc2NC(=O)c2cc(I)cc(I)c2O)c1 [Compound 201]	0	–	8 (≈ 13 µM)	4 (≈ 6.52 µM)	2 (≈ 3.26 µM)	–	30	–	–	–	–	–	–
O=C(Nc1cc(Cl)ccc1O)c1ccc(Cl)c(C(=O)c2ccc(Cl)cc2)c1 [Compound 126]	100	100	0.06 (≈ 0.143 µM)	1 (≈ 2.38 µM)	0.125 (≈ 0.297 µM)	>256	–	–	–	–	–	–	–
Cc1ccc(C(C)C)c(Oc2cc(Cl)ccc2NC(=O)c2cc(Br)cc(Br)c2O)c1 [Compound 202]	0	–	1 (≈ 1.81 µM)	1 (≈ 1.81 µM)	1 (≈ 1.81 µM)	–	20	–	–	–	–	–	–
Cc1ccc(C(C)C)cc1Oc1ccc(Cl)cc1NC(=O)c1cc(Cl)cc(Br)c1O [Compound 121]	0	0	0.25 (≈ 0.491 µM)	0.25 (≈ 0.491 µM)	0.125 (≈ 0.245 µM)	>256	90	–	–	–	–	–	–
Cc1ccc(C(C)C)cc1Oc1ccc(Cl)cc1NC(=O)c1cc(Cl)cc(Br)c1O [Compound 206]	0	–	1 (≈ 1.96 µM)	1 (≈ 1.96 µM)	0.5 (≈ 0.982 µM)	–	60	–	–	–	–	–	–
O=C(Nc1cc(Cl)cc(C(=O)c2ccc(Cl)cc2)c1Cl)c1cc(Cl)cc(Br)c1O [Compound 117]	100	0	0.25 (≈ 0.468 µM)	0.5 (≈ 0.936 µM)	0.5 (≈ 0.936 µM)	>256	–	–	–	–	–	–	–
Cc1ccc(C(C)C)c(Oc2ccc(Cl)cc2NC(=O)c2cc(Cl)cc(Cl)c2O)c1 [Compound 209]	0	–	0.5 (≈ 1.08 µM)	1 (≈ 2.15 µM)	0.25 (≈ 0.538 µM)	–	60	–	–	–	–	–	–
Cc1ccc(C(C)C)c(Oc2ccccc2NC(=O)c2cc(Br)cc(Br)c2O)c1 [Compound 204]	0	–	8 (≈ 15.4 µM)	1 (≈ 1.93 µM)	4 (≈ 7.7 µM)	–	50	–	–	–	–	–	–
Cc1ccc(C(C)C)cc1Oc1ccc(Cl)cc1NC(=O)c1cc(Cl)ccc1O [Compound 205]	90	–	1 (≈ 2.32 µM)	0.5 (≈ 1.16 µM)	0.5 (≈ 1.16 µM)	–	–	–	–	–	–	–	–
Cc1ccc(C(=O)c2cc(Cl)cc(NC(=O)c3cc(Br)cc(Br)c3O)c2Cl)cc1 [Compound 145]	100	0	>4	>4	>4	–	–	–	–	–	–	–	–
O=C(Nc1ccc(Cl)cc1)c1cc(Br)cc(Br)c1O [Compound 118]	–	–	–	–	4 (≈ 9.87 µM)	–	–	100	100	1 (≈ 2.47 µM)	1 (≈ 2.47 µM)	–	128 (≈ 316 µM)
O=C(Nc1ccc(O)cc1)c1cc(Br)cc(Br)c1O [KTS-1]	–	–	–	–	–	–	–	70	–	16 (≈ 41.3 µM)	32 (≈ 82.7 µM)	> 32	–
O=C(Nc1ccccc1O)c1cc(Br)cc(Br)c1O [KTS-3]	–	–	–	–	–	–	–	70	–	4 (≈ 10.3 µM)	4 (≈ 10.3 µM)	4 (≈ 10.3 µM)	–
